Results taken from patent US20050222085A1, “Quaternised ammonium cyclodextrin compounds” (priority 2002, published 2005).

Tests used:
Assay in all cases: Preservative effectiveness test
Type in all cases: cell-based
[1] = system: Aspergillus niger ATCC 16404; details: Time 28 d; same solution
Method: (§1) 0.2 g of QA-beta-CD (QA-beta-CD=3-(trimethylammonio)-2-hydroxypropyl-beta-cyclodextrin chloride, empiric formula: (C6H10-nO5)7(C6H15ONCl)n n=2-5. are added to 170 ml water (nanopure). Then 10.10 g of Sorbitol and 0.2 g of Disodium edetate are added and the pH is adjusted to a value of 7.0-7.4 and water added to make up 200 ml of resulting solution. The solution is filtered through a Corning bottle top filter unit 0.22 μm CA under sterile conditions. The solution has a pH of 7.35 and an osmolality of 307 mOsm/kg (270-330).
(§2) Samples of the solution are inoculated with Escherichia coli ATCC 8739; Pseudomonas aeruginosa ATCC 9027, Staphyloccocus aureus ATCC 6538; Candida albicans ATCC 10231 and Aspergillus niger ATCC 16404, respectively and assayed for presence/growth at the times given in Table 2.

[2] = system: Candida albicans ATCC 10231; details: same solution
Method: as §1, §2

[3] = system: Escherichia coli ATCC 8739; details: same solution
Method: as §1, §2

[4] = system: Pseudomonas aeruginosa ATCC 9027; details: same solution
Method: as §1, §2

[5] = system: Staphyloccocus aureus ATCC 6538; details: same solution
Method: as §1, §2

With “3-(trimethylammonio)-2-hydroxypropyl-beta-cyclodextrin chloride [QA-beta-CD]” the “presence/growth of Aspergillus niger ATCC 16404” value [1] was 2. 10^2, the “presence/growth of Candida albicans ATCC 10231” value ([2]; Time 7 d) was <10^2 and the “presence/growth of Candida albicans ATCC 10231” value ([2]; Time 14 d) was <10^2. The “presence/growth of Candida albicans ATCC 10231” value ([2]; Time 28 d) was <10^2, the “presence/growth of Escherichia coli ATCC 8739” value ([3]; Time 6 h) was <10^2 and the “presence/growth of Escherichia coli ATCC 8739” value ([3]; Time 24 h) was <10^2. The “presence/growth of Escherichia coli ATCC 8739” value ([3]; Time 7 d) was <10^2, the “presence/growth of Escherichia coli ATCC 8739” value ([3]; Time 28 d) was <10^2 and the “presence/growth of Pseudomonas aeruginosa ATCC 9027” value ([4]; Time 6 h) was <10^2. The “presence/growth of Pseudomonas aeruginosa ATCC 9027” value ([4]; Time 24 h) was <10^2, the “presence/growth of Pseudomonas aeruginosa ATCC 9027” value ([4]; Time 7 d) was <10^2 and the “presence/growth of Pseudomonas aeruginosa ATCC 9027” value ([4]; Time 28 d) was <10^2. For the same substance, the “presence/growth of Staphyloccocus aureus ATCC 6538” value ([5]; Time 24 h) was <10^2, the “presence/growth of Staphyloccocus aureus ATCC 6538” value ([5]; Time 7 d) was <10^2 and the “presence/growth of Staphyloccocus aureus ATCC 6538” value ([5]; Time 28 d) was <10^2.
